From patent publication US20250041248A1, “ALZ-801 FOR USE IN TREATING ALZHEIMER'S DISEASE” (Alzheon, Inc., priority 2021, published 2025)
“Also recorded” adds a separate entry of the source.

What was measured:
[1] = Steady-state plasma tramiprosate pharmacokinetics, expanded access subject, TID and QID; assay type: in vivo, human; conditions: BID vs TID vs QID, 265 mg per dose
From the text: The steady state pharmacokinetics of the TID and QID dosing regimen in the patient has been assayed for area under the curve (AUC) and maximum concentration (Cmax) of plasma tramiprosate (the active form of ALZ-801) and compared to BID dosing values in a population of patients in a Phase 2 human clinical trial of ALZ-801. Once the patient reaches steady state on a particular dosing regimen (any time after day 7 of a particular dosing regimen), a blood sample was collected just prior to the administration of a dose of AZL-801 and then again at 1, 2 and 4 hours post-administration of that dose. Plasma was isolated from the sample by centrifugation and the plasma samples were frozen and shipped to a bioanalytical lab for determination of tramiprosate concentrations (active moiety of ALZ-801) and calculation of AUC and Cmax. The values obtained from the plasma were then used to calculate projected brain AUC.

[2] = tested on: subject with major neurocognitive disorder of the Alzheimer type, APOE4 homozygous; assay: Compassionate use study (Expanded Access IND), clinical response and tolerability; assay type: in vivo, human; conditions: n=1
Experimental: A subject who received a diagnosis of major neurocognitive disorder of the Alzheimer type was treated with ALZ-801 as part of a compassionate use study. The subject was a APOE4 homozygous and had received standard cognitive enhancing medications and was enrolled in a trial of an amyloid immunotherapy agent, but without benefit, and had no treatment options.
The subject was orally administered ALZ-801 at a dose of 265 mg BID for approximately 14 months (61 weeks, 2 days). […] For example, their motor skills improved as they made efforts to brush their teeth, get dressed, and bathe […]. They also were able to hold a phone to their […] and was walking and eating better. They were not able or willing to do the above prior to treatment with 265 mg BID ALZ-801. Further, their mood was noticeably more cheerful and content, and their verbal communication advanced. However, by the later end of the first 12-months of treatment, the improvement in the subject's symptoms plateaued and there was a decline in their cognitive status. They became apathetic, less verbal, and could no longer follow instructions.
At 62 weeks, 6 days of treatment, the dosage of ALZ-801 was increased from 265 mg BID to 265 mg TID. Remarkably, their plateau and decline in cognition ended upon commencement of the 265 mg TID dosage regimen. They were more talkative, happier, and not only completed the tasks they accomplished while on 265 mg BID ALZ-801, but improved beyond that. They understand the context of conversation and behave in a more “normal” or “natural” manner. […] A similar plateau or decline in cognitive status as observed with an ALZ-801 dosage of 265 mg BID began to manifest approximately 12 months after the beginning of the 265 mg TID ALZ-801 dosing. The subject remained on 265 mg TID ALZ-801 for approximately three more months (15 months total) until their dosage was increased to 265 mg QID (four time a day) ALZ-801, which they have maintained for the past seven months. […] Their caretakers have noted that the patient's disposition and alertness has improved, they are more responsive, more cooperative and has improved interaction with the caretakers.

SMILES: CC(C)[C@H](N)C(=O)NCCCS(=O)(=O)O [ALZ-801, valyl-3-amino-1-propanesulfonic acid]
- dose proportionality of plasma AUC and Cmax (tramiprosate) [1]: dose proportional increases in plasma AUC and Cmax
- duration of improvement and stabilization before plateau/decline ([2]; oral 265 mg BID): about 58 weeks
- tolerability / side effects ([2]; oral 265 mg QID): well-tolerated with no associated nausea or noticeable side effects; also recorded: well tolerated
- time to plateau or decline in cognitive status after start of dosing ([2]; oral 265 mg TID): approximately 12 months
- tolerability / side effects ([2]; oral 265 mg TID): without out noticeable side effects; also recorded: well-tolerated
